What follows are compounds tested against hQC (Homo sapiens, UniProt Q16769) (assay: Inhibitor assay for glutaminyl cyclase activity (fluorometric, H-Gln-βNA / H-Gln-AMC)). Settings: compound from preparative synthesis, purified.
Format: biochemical
Outline: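 Ki values came from fitting progress curves to a competitive inhibition model; rapid screens used 4 mM inhibitor with substrate at KM. QC activity was read at 30 °C via auxiliary pyroglutamyl aminopeptidase releasing βNA (0.2 mM H-Gln-βNA, 0.2 M Tris pH 8.0, 20 mM EDTA) or AMC (0.05 M Tris pH 8.0, 5 mM EDTA).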

Sequence of hQC (Q16769 29-361): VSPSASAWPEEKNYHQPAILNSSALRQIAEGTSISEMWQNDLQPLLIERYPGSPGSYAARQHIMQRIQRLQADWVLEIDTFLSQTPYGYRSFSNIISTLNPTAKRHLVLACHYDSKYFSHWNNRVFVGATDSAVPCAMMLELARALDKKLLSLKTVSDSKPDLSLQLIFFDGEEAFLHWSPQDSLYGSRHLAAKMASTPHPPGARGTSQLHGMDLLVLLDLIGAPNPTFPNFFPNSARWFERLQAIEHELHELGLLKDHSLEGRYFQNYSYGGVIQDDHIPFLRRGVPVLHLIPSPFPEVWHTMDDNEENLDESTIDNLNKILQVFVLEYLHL

In the case of `CC1=C(O)C(=O)N(c2ccc3nc[nH]c3c2)C1c1c(F)ccc(F)c1Cl` (centres unmarked) [Compound 472, 1-(1H-benzo[d]imidazol-6-yl)-5-(2-chloro-3,6-difluorophenyl)-3-hydroxy-4-methyl-1H-pyrrol-2(5H)-one], the Ki is reported as 0.0558 µM.

Same assay, conditions: compound from preparative synthesis, purified; read-out: IC50 hQC

For `O=C1C(O)=C(c2c[nH]c3ccccc23)C(c2cnc3ccccc3c2)N1c1ccc2[nH]cnc2c1` (centres unmarked) [Compound 422, 1-(1H-Benzoimidazol-5-yl)-3-hydroxy-4-(1H-indol-3-yl)-5-quinolin-3-yl-1,5-dihydro-pyrrol-2-one], the IC50 was 0.575 µM.

Same assay, conditions: read-out: IC50

Going from `CC(=O)C1=C(O)C(=O)N(c2ccc3[nH]cnc3c2)C1c1cnc2ccccc2c1` (centres unmarked) [Compound 360, 4-Acetyl-1-(1H-benzoimidazol-5-yl)-3-hydroxy-5-quinolin-3-yl-1,5-dihydro-pyrrol-2-one] to `CC(=O)C1=C(O)C(=O)N(c2ccc3[nH]cnc3c2)C1c1cccc(C)n1` (centres unmarked) [Compound 330, 4-Acetyl-1-(1H-benzoimidazol-5-yl)-3-hydroxy-5-(6-methyl-pyridin-2-yl)-1,5-dihydro-pyrrol-2-one], the IC50 rises from 0.04 µM to 2.11 µM (53-fold). The first is the more potent here.

`CCCCCC1C(c2ccccc2)=C(O)C(=O)N1CCCn1ccnc1` (centres unmarked) [Compound 89, 3-Hydroxy-1-(3-imidazol-1-yl-propyl)-5-pentyl-4-phenyl-1,5-dihydro-pyrrol-2-one] and `CCCCCC1=C(O)C(=O)N(CCCn2ccnc2)C1c1ccc(C)c(C)c1` (centres unmarked) [Compound 195, 5-(3,4-Dimethyl-phenyl)-3-hydroxy-1-(3-imidazol-1-yl-propyl)-4-pentyl-1,5-dihydro-pyrrol-2-one] are the same in IC50: 0.04 µM for the first, 0.04 µM for the second.

Compared with `O=C1C(O)=C(c2c[nH]c3ccccc23)C(c2cnc3ccccc3c2)N1c1ccc2[nH]cnc2c1` (centres unmarked) [Compound 422, 1-(1H-Benzoimidazol-5-yl)-3-hydroxy-4-(1H-indol-3-yl)-5-quinolin-3-yl-1,5-dihydro-pyrrol-2-one], `Cc1ccc2c(C3C(c4c[nH]c5ccccc45)=C(O)C(=O)N3c3ccc4[nH]cnc4c3)c[nH]c2c1` (centres unmarked) [Compound 320, 1-(1H-Benzoimidazol-5-yl)-3-hydroxy-4-(1H-indol-3-yl)-5-(6-methyl-1H-indol-3-yl)-1,5-dihydro-pyrrol-2-one] is 2400-fold higher in IC50: 0.004 µM for the first, 9.49 µM for the second. The first is the more potent here.

Compared with `CCCCCC1=C(O)C(=O)N(CCCn2ccnc2)C1C1=CCCCC1` (centres unmarked) [Compound 201, 5-Cyclohex-1-enyl-3-hydroxy-1-(3-imidazol-1-yl-propyl)-4-pentyl-1,5-dihydro-pyrrol-2-one], `CC1=C(O)C(=O)N(CCCn2ccnc2)C1c1cccc(Cl)c1` (centres unmarked) [Compound 50, 5-(3-Chloro-phenyl)-3-hydroxy-1-(3-imidazol-1-yl-propyl)-4-methyl-1,5-dihydro-pyrrol-2-one] is 3.2-fold lower in IC50: 1.3 µM for the first, 0.4 µM for the second.

Compared with `CC1=C(O)C(=O)N(c2ccc3[nH]cnc3c2)C1c1ccc(C(=O)O)o1` (centres unmarked) [Compound 399, 5-[1-(1H-Benzoimidazol-5-yl)-4-hydroxy-3-methyl-5-oxo-2,5-dihydro-1H-pyrrol-2-yl]-furan-2-carboxylic acid], `CC(=O)C1=C(O)C(=O)N(c2ccc3[nH]cnc3c2)C1c1ccsc1` (centres unmarked) [Compound 367, 4-Acetyl-1-(1H-benzoimidazol-5-yl)-3-hydroxy-5-thiophen-3-yl-1,5-dihydro-pyrrol-2-one] is 1.8-fold lower in IC50: 1.39 µM for the first, 0.76 µM for the second.

`CCCC(=O)C1=C(O)C(=O)N(c2ccc3[nH]cnc3c2)C1CCC` (centres unmarked) [Compound 313, 1-(1H-Benzoimidazol-5-yl)-4-butyryl-3-hydroxy-5-propyl-1,5-dihydro-pyrrol-2-one] and `CC(C)(C)C(=O)C1=C(O)C(=O)N(c2ccc3[nH]cnc3c2)C1c1nccs1` (centres unmarked) [Compound 402, 1-(1H-Benzoimidazol-5-yl)-4-(2,2-dimethyl-propionyl)-3-hydroxy-5-thiazol-2-yl-1,5-dihydro-pyrrol-2-one] are within 1.5-fold of each other in IC50: 5.17 µM for the first, 6.34 µM for the second.

`O=C1C(O)=C(c2ccc(O)cc2)C(C(F)(F)F)N1CCCn1ccnc1` (centres unmarked) [Compound 166, 3-Hydroxy-4-(4-hydroxy-phenyl)-1-(3-imidazol-1-yl-propyl)-5-trifluoromethyl-1,5-dihydro-pyrrol-2-one] and `CC1=C(O)C(=O)N(CCCn2ccnc2)C1c1ccccc1O` (centres unmarked) [Compound 28, 3-Hydroxy-5-(2-hydroxy-phenyl)-1-(3-imidazol-1-yl-propyl)-4-methyl-1,5-dihydro-pyrrol-2-one] are the same in IC50: 0.4 µM for the first, 0.4 µM for the second.

With `CC1=C(O)C(=O)N(c2ccc3nc[nH]c3c2)C1c1c(F)ccc(F)c1Cl` (centres unmarked) [Compound 472, 1-(1H-benzo[d]imidazol-6-yl)-5-(2-chloro-3,6-difluorophenyl)-3-hydroxy-4-methyl-1H-pyrrol-2(5H)-one] the IC50 was 0.47 µM.
